In brackets after ≈: the same amount, converted by molar mass.
Test system: multidrug-resistant (MDR) strains of Mycobacterium tuberculosis
Assay: microbe, parasite or virus in culture
Assay type: cell-based
Settings: 192 h, read-out: Anti-tubercular activity (MIC) MDR-TB

| Structure (SMILES) | MIC [µg/mL] |
| --- | --- |
| O=c1[nH]c(=S)[nH]c2[nH]c(=S)nc(-c3c[nH]c4ccccc34)c12 [Compound 4b, 5-(1H-Indol-3-yl)-2,7-dithioxo-2,3,7,8-tetrahydropyrimido[4,5-d]pyrimidin-4(1H)-one] | 8 (≈ 24.4 µM) |
| Cn1c(=O)c2c(-c3c[nH]c4ccccc34)nc(=S)[nH]c2n(C)c1=O [Compound 4c, 5-(1H-Indol-3-yl)-1,3-dimethyl-7-thioxo-7,8-dihydropyrimido[4,5-d]pyrimidine-2,4(1H,3H)-dione] | 4 (≈ 11.8 µM) |
| O=c1[nH]c(=O)c2c(-c3c[nH]c4ccccc34)nc(=S)[nH]c2[nH]1 [Compound 4a, 5-(1H-Indol-3-yl)-7-thioxo-7,8-dihydropyrimido[4,5-d]pyrimidine-2,4(1H,3H)-dione] | 16 (≈ 51.4 µM) |

Reference: US11976076B1 (priority 2023, dated 2024)
